Inhibition data for one molecule are collected here from patent US12398151B2, “Sumo inhibitor compounds and uses thereof” (SUVALENT THERAPEUTICS, INC., priority 2019, dated 2025).

In one assay the target is T1, Atg7 (Homo sapiens, UniProt O95352).
T1 sequence (O95352 1-703): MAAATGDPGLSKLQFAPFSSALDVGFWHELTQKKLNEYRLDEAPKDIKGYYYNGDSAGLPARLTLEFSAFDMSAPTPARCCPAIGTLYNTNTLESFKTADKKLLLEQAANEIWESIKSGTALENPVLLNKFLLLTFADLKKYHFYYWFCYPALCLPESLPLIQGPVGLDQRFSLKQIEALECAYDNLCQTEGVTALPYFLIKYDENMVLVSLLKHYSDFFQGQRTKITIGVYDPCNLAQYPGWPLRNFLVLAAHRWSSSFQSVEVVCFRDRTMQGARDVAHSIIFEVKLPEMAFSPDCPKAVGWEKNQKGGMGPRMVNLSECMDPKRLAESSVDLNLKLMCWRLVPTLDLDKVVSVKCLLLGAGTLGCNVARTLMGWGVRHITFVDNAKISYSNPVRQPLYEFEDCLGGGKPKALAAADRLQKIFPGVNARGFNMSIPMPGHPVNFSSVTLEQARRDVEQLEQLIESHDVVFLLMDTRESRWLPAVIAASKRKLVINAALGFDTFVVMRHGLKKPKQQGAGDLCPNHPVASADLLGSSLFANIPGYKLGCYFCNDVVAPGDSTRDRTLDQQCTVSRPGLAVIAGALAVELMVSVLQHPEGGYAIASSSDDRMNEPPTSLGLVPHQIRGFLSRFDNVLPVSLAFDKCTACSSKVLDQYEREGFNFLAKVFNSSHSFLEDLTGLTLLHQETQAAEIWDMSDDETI
Put plainly: Atg7 activating enzyme (E1) inhibition. Format: biochemical. The note with it: 25 uM compound, 60 min preincubation; read-out: Atg7 percent inhibition of adduct formation. The method, boiled down: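 Compounds were assessed for their ability to inhibit the Atg7 activating enzyme (E1) following previously published methods and protocols. The E1 enzyme was preincubated with compound, and activity was expressed as the percent inhibition of adduct formation, reported together with the compound concentration in uM and the E1–compound preincubation time in minutes.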

The next assay concerns the target T2, SUMO E1 (Homo sapiens, UniProt Q9UBT2).
T2 sequence (Q9UBT2 1-640): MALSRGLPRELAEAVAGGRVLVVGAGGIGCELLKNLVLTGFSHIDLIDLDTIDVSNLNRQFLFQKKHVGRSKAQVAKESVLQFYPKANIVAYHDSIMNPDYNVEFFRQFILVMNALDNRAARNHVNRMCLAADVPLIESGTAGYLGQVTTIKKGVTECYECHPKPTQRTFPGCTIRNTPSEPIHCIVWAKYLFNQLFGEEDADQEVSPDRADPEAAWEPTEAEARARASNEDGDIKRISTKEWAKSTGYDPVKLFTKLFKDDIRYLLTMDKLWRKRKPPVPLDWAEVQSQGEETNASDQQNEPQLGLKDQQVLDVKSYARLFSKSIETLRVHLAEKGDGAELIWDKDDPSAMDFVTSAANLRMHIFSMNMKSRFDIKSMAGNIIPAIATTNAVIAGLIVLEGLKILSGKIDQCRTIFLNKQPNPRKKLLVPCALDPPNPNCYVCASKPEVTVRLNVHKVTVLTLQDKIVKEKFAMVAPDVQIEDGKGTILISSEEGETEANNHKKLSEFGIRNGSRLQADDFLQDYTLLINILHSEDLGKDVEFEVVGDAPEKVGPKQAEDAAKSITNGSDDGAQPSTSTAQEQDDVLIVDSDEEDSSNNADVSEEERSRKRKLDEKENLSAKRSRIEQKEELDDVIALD
T2 sequence (Q9UBE0 1-346 partner): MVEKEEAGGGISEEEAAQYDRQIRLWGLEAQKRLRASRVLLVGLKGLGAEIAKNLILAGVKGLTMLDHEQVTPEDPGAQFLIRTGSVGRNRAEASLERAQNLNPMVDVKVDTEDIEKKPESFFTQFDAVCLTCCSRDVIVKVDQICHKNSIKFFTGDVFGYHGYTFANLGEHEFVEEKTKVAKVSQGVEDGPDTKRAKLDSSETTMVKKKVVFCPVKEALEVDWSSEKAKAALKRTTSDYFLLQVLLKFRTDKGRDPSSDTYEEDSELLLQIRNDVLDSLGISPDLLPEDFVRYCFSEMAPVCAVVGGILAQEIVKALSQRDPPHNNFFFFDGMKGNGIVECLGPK
Put plainly: SUMO E1 inhibition: UBC9-SUMO1 conjugation by SDS gel electrophoresis. It is filed as biochemical. The note with it: 15 uM compound, 15 min preincubation; read-out: SUMO E1 percent inhibition of adduct formation. In a few lines: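 SUMO E1 was preincubated with compound for a set time, then UBC9, SUMO1 and ATP were added and incubated at 37 °C. After Laemmli quench, UBC9-SUMO1 adduct was resolved by SDS gel; percent inhibition from band intensity versus no-compound control, reported with compound concentration (μM) and preincubation time (min).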

Each structure is given as a SMILES string. Bounds are passed on as bounds.

`C=CC(=O)N1Cc2sccc2[C@@H](c2ccc(OC)cc2)C1` [Compound 155]: the inhibition at 25 µM at Atg7 was under 1%. The inhibition at 15 µM at SUMO E1 was under 1%.
